Assay: Dissolution of host and dopant materials in toluene solution (visual check)
Format: physicochemical
Conditions: 1.6-mass % toluene solution, host:dopant D-1 90:10 by mass, dissolved using ultrasonic waves, visually checked
Description: The compound H-1 obtained in Synthesis Example 1 was used as a host material and the compound D-1 was used as a dopant material at a mixture ratio by mass of the compound H-1:the compound D-1 being 90:10 to prepare a 1.6-mass % toluene solution. The materials were dissolved using ultrasonic waves. […] The toluene solution was coated on the base substrate by spin coating to form a 50-nm thick film. After the film formation, an unnecessary portion was removed with toluene from the film. Subsequently, the film was heated and dried on a hot plate heated at 150 degrees C. to manufacture a coated laminate substrate on which an emitting layer was formed. It should be noted that all the operations for forming the emitting layer were conducted in a nitrogen-atmosphere glove box.
In Comparative 1, manufacturing of an organic EL device was attempted in the same manner as in Example 1 except that a comparative compound H-a was used in place of the compound H-1 as the host material. However, the materials were not dissolved in the toluene solution but whitened to be unable to prepare a solution, so that an organic EL device was not manufactured.

## c1ccc(-c2ccc(-c3nc(-n4c5ccccc5c5cc(-n6c7ccccc7c7ccccc76)ccc54)nc(-n4c5ccccc5c5cc(-n6c7ccccc7c7ccccc76)ccc54)n3)cc2)cc1 [H-a]
  solubility in toluene solution: not dissolved
